Reference: patent publication US20060167223A1, “Novel ampiphilic fluorocarbon molecular vectors for biomedical and medical use” (priority 2002, published 2006)

Assays:
fibroblasts = test: Toxicity on cell cultures of fibroblasts; type: cell-based
[1] = test system: microvessel growth (chick aortic ring); test: Vascular growth assay on chick embryos (chick aortic ring assay); type: cell-based
Source text: The ongoing research will make it possible to specify its effectiveness, compared with thalidomide alone, in blocking tumor development.

B16 melanoma cells = test: Toxicity / cytotoxicity on B16 melanoma cells; type: cell-based
Procedure: The cytotoxicity of this molecule was tested on B16 melanoma cells; no toxicity could be measured up to concentrations of greater than 100 μM.

[2] = Radioactivity in organs of mice carrying B16 melanomas after IP injection of molecule A; type: in vivo; design: Radioactivity measured: unit not given here; settings: for Radioactivity measured: 10 μCi/animal
Water-solubility = type: physicochemical
Source text: As has been seen, however, the growth of a cancerous tumor is closely linked to its rate of vascularization and therefore to the phenomenon of angiogenesis that accompanies it. These observations had the scientific community to develop substrates, as has been seen, capable of inhibiting angiogenesis and therefore of blocking, by this means, the development of tumors. It is in fact now commonly accepted that membrane proteins carried by the angiogenic cells, and called integrins, participate actively in the process of proliferation of these cells. More particularly, αVβ3 integrins recognize a specific peptide sequence, the RGD (arginine-glycine-aspartic acid) sequence. The grafting of this unit onto the proposed vector should therefore provide it with an ability to specifically target angiogenic sites and therefore, ultimately, tumor sites. The addition, to this same vector, of an antimitotic agent should allow the selective destruction of the cancerous cells. In this perspective, molecule B was initially prepared to verify the innocuousness of the vector and to determine its specificity. In order to give the targeting agent a greater degree of freedom, said targeting agent was grafted onto the central lysine by means of a […] amino acid, serine. The molecule is water-soluble and is amphiphilic in nature. [drawing 11]

[3] = Radioactivity in mice carrying B16 melanoma after IV injection of iodine 125-labeled molecule B; type: in vivo; design: Radioactivity measured: unit not given here; settings: for Radioactivity measured: 10 μCi/animal
[4] = test system: fibroblasts exhibiting the NARP mutation; type: cell-based
Source text: The aim pursued here was to refine and to simplify the structure of these substrates while at the same time conserving their biological activity in order to develop a synthetic process that can be readily adapted to the industrial phase.

Structure (SMILES): O=C1CCC(N2C(=O)c3ccc(C(=O)NC(Cc4ccc(O)cc4)C(=O)NCCCCC(NC(=O)C(O)[C@H](O)[C@H](O[C@@H]4OC(CO)[C@H](O)[C@H](O)C4O)C(O)CO)C(=O)NCCC(F)(F)C(F)(F)C(F)(F)C(F)(F)C(F)(F)C(F)(F)C(F)(F)C(F)(F)F)cc3C2=O)C(=O)N1 (stereo partly drawn) [molecule A]
- Toxicity on cell cultures (fibroblasts): no totally unacceptable toxicity
- Inhibiting microvessel growth ([1]; at 20 μM): effective
- Inhibiting microvessel growth ([1]; at 200 μM): completely blocks the development
- Toxicity on cell cultures (B16 melanoma cells; B16 melanomas): no totally unacceptable toxicity
- Radioactivity measured ([2]; Blood, 15 min after IP injection): 5.9 ± 1.2
- Radioactivity measured ([2]; Blood, 1 h after IP injection): 3.4 ± 0.7
- Radioactivity measured ([2]; Kidney, 15 min after IP injection): 4.6 ± 0.5
- Radioactivity measured ([2]; Kidney, 1 h after IP injection): 4.0 ± 0.9
- Radioactivity measured ([2]; Liver, 15 min after IP injection): 4.5 ± 1.1
- Radioactivity measured ([2]; Liver, 1 h after IP injection): 2.2 ± 0.8
- Radioactivity measured ([2]; Thyroid, 15 min after IP injection): 5.6 ± 0.8
- Radioactivity measured ([2]; Thyroid, 1 h after IP injection): 9.8 ± 1.7
- Radioactivity measured ([2]; Tumor (center), 15 min after IP injection): 2.6 ± 0.5
- Radioactivity measured ([2]; Tumor (center), 1 h after IP injection): 2.7 ± 0.5
- Radioactivity measured ([2]; Tumor (stroma), 15 min after IP injection): 4.5 ± 0.7
- Radioactivity measured ([2]; Tumor (stroma), 1 h after IP injection): 5.4 ± 0.2
- Localisation in vivo ([2]; mice carrying B16 melanomas, IP injection): concentrated in the stroma of the tumor

Structure (SMILES): COC(=O)C(CCCCNC(=O)C(Cc1ccc(O)cc1)NC(=O)C(C)(C)C(C)(C)C(F)(F)C(F)(F)C(F)(F)C(F)(F)C(F)(F)C(F)(F)C(F)(F)C(F)(F)F)NCC(CO)NC(=O)C(CC(=O)O)NC(=O)CNC(=O)C(N)CCCNC(=N)N (stereo not drawn) [molecule B]
- Water-solubility (Water-solubility): water-soluble
- Radioactivity measured ([3]; Blood, 15 min after IV injection): 5.8 ± 0.8
- Radioactivity measured ([3]; Blood, 30 min after IV injection): 4.5 ± 0.8
- Radioactivity measured ([3]; Blood, 1 h after IV injection): 3.6 ± 0.7
- Radioactivity measured ([3]; Kidney, 15 min after IV injection): 8.9 ± 1.6
- Radioactivity measured ([3]; Kidney, 30 min after IV injection): 5.9 ± 0.6
- Radioactivity measured ([3]; Kidney, 1 h after IV injection): 3.5 ± 0.6
- Radioactivity measured ([3]; Liver, 15 min after IV injection): 4.8 ± 0.8
- Radioactivity measured ([3]; Liver, 30 min after IV injection): 2.2 ± 0.6
- Radioactivity measured ([3]; Liver, 1 h after IV injection): 2.4 ± 0.7
- Radioactivity measured ([3]; Thyroid, 15 min after IV injection): 5.9 ± 1.2
- Radioactivity measured ([3]; Thyroid, 30 min after IV injection): 10.2 ± 2.5
- Radioactivity measured ([3]; Thyroid, 1 h after IV injection): 15.3 ± 5.3
- Radioactivity measured ([3]; Tumor (center), 15 min after IV injection): 1.7 ± 0.6
- Radioactivity measured ([3]; Tumor (center), 30 min after IV injection): 1.8 ± 0.3
- Radioactivity measured ([3]; Tumor (center), 1 h after IV injection): 2.4 ± 0.4
- Radioactivity measured ([3]; Tumor (stroma), 15 min after IV injection): 3.9 ± 0.8
- Radioactivity measured ([3]; Tumor (stroma), 30 min after IV injection): 3.8 ± 0.9
- Radioactivity measured ([3]; Tumor (stroma), 1 h after IV injection): 4.2 ± 0.6
- Localisation in vivo ([3]; iodine 125-labeled, injected intravenously, mice carrying a melanoma): accumulates in the stroma of the tumor
- Cytotoxicity: concentration up to which no toxicity could be measured (B16 melanoma cells; B16 melanoma cells): greater than 100 μM

Structure (SMILES): CC(C)(C)/[N+]([O-])=C/c1ccc(C(=O)NCCCCC(NC(=O)C(O)[C@H](O)[C@H](O[C@@H]2OC(CO)[C@H](O)C(O)C2O)C(O)CO)C(=O)NCCC(F)(F)C(F)(F)C(F)(F)C(F)(F)C(F)(F)C(F)(F)C(F)(F)C(F)(F)F)cc1 (stereo partly drawn) [molecule E]
- Toxicity [4]: No toxicity was measured
- Cell protection ([4]; NARP fibroblasts, in vitro): exhibits a capacity for cell protection
- Effect on the apoptotic process ([4]; NARP fibroblasts, in vitro): inhibits the apoptotic process

Structure (SMILES): O=C1CCC(N2C(=O)c3ccccc3C2=O)C(=O)N1 (stereo not drawn) [thalidomide, reference compound]
- Inhibiting microvessel growth ([1]; at such concentrations (20 μM, 200 μM)): ineffective
